Results reported in patent US20120115845A1, “THERAPEUTIC AGENTS” (priority 2007, published 2012).

Tests used:
human GHS receptor [1] = biological target: T1, human GHS receptor (Homo sapiens, UniProt Q92847); experiment: h bind IC50 (binding assay, Table 1); settings: human receptor; Table 1
human GHS receptor [2] = biological target: T1, human GHS receptor; experiment: Ghrelin IP1 agonist assay (IP1 HTRF); format: cell-based; design: expressed in transfected cells; host or cells: HEK293s; settings: for Emax: 2 h, agonist effect as % maximal effect of GHRP-6 (5 μM), read-out: h IP1 ag %; for EC50: HEK293s cells stably expressing human GHS receptor, 2 hours at 37° C., read-out: h IP1 ag EC50
Outline: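 Cells: HEK293s stably expressing human GHS receptor, in stimulation buffer containing 0.02% fatty acid free BSA.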

T1 sequence (Q92847 whole entry): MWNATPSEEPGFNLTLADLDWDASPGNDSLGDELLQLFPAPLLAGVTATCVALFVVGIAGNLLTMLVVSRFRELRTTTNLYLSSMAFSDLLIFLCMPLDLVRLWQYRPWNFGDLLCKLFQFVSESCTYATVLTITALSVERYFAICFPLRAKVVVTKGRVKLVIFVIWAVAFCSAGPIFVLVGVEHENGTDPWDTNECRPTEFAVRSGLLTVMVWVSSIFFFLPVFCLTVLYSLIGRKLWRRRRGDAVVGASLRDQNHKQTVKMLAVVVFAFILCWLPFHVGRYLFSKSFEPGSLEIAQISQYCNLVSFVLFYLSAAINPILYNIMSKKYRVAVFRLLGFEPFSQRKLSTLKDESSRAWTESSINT

IC50 (human GHS receptor [1]) [nM]	Emax (human GHS receptor [2]) [%]	EC50 (human GHS receptor [2]) [nM]	SMILES
1.5	79.4	0.934	C[C@@H]1CN(CCCS(=O)(=O)c2ccc3nc(NC(=O)NC(=O)c4ccccc4Cl)sc3c2)C[C@H](C)N1 [Example 196, 2-Chloro-N-[[6-[3-[(3S,5R)-3,5-dimethylpiperazin-1-yl]propylsulfonyl]benzothiazol-2-yl]carbamoyl]benzamide]
172	39.4	9.52	Cc1ccc(F)c(C(=O)NC(=O)Nc2nc3ccc(S(C)(=O)=O)cc3s2)c1Cl [Example 194, 2-Chloro-6-fluoro-3-methyl-N-[(6-methylsulfonylbenzothiazol-2-yl)carbamoyl]benzamide]
18.6	58.2	43	COCCNC1CC(S(=O)(=O)c2ccc3nc(NC(=O)NC(=O)c4ccccc4Cl)sc3c2)C1 (stereo not drawn) [Example 222, 2-Chloro-N-[[6-[3-(2-methoxyethylamino)cyclobutyl]sulfonylbenzothiazol-2-yl]carbamoyl]benzamide]
10.8	32.1	11	CC(=O)N1CCN(CCCS(=O)(=O)c2ccc3nc(NC(=O)NC(=O)c4ccccc4Cl)sc3c2)CC1 [Example 198, N-[[6-[3-(4-Acetylpiperazin-1-yl)propylsulfonyl]benzothiazol-2-yl]carbamoyl]-2-chloro-benzamide]
248	22.8	66.4	CS(=O)(=O)c1ccc2nc(NC(=O)NC(=O)c3cc(F)c(F)cc3Cl)sc2c1 [Example 177, 2-Chloro-4,5-difluoro-N-[(6-methylsulfonylbenzothiazol-2-yl)carbamoyl]benzamide]
49	54.4	0.633	CS(=O)(=O)c1ccc2nc(NC(=O)NC(=O)c3cc(C(F)(F)F)ccc3Cl)sc2c1 [Example 181, 2-Chloro-N-[(6-methylsulfonylbenzothiazol-2-yl)carbamoyl]-5-(trifluoromethyl)benzamide]
51.9	21.3	82.2	O=C(NC(=O)c1ccccc1Cl)Nc1nc2ccc(S(=O)(=O)CCc3ccccn3)cc2s1 [Example 190, 2-Chloro-N-[[6-(2-pyridin-2-ylethylsulfonyl)benzothiazol-2-yl]carbamoyl]benzamide]
3780	6.82	5130	CN1CCC(Oc2ccc(Cl)c(C(=O)NC(=O)Nc3nc4ccc(S(C)(=O)=O)cc4s3)c2)C1 (stereo not drawn) [Example 250, 2-chloro-5-(1-methylpyrrolidin-3-yloxy)-N-(6-(methylsulfonyl)benzo[d]thiazol-2-ylcarbamoyl) benzamide]
87.8	24.3	139	CC(C)NS(=O)(=O)c1ccc2nc(NC(=O)NC(=O)c3ccccc3Cl)sc2c1 [Example 224, 2-chloro-N-[[6-(isopropylsulfamoyl)-1,3-benzothiazol-2-yl]carbamoyl]benzamide]
2.08	0	≥ 20000	CC(C)NCC(C)(C)S(=O)(=O)c1ccc2nc(NC(=O)NC(=O)c3cc(N4CCOCC4)ccc3Cl)sc2c1 [Example 246, 2-chloro-N-(6-(1-(isopropylamino)-2-methylpropan-2-ylsulfonyl)benzo[d]thiazol-2-ylcarbamoyl)-5-morpholino-benzamide]
58.1	16.1	5.95	O=C(NC(=O)c1ccccc1Cl)Nc1nc2ccc(S(=O)(=O)Cc3cccnc3)cc2s1 [Example 187, 2-Chloro-N-[[6-(pyridin-3-ylmethylsulfonyl)benzothiazol-2-yl]carbamoyl]benzamide]
6.7	42.1	13.8	O=C(NC(=O)c1ccccc1Cl)Nc1nc2ccc(S(=O)(=O)C3CNC3)cc2s1 [Example 183, N-[[6-(Azetidin-3-ylsulfonyl)benzothiazol-2-yl]carbamoyl]-2-chloro-benzamide]

The next lines start with the compound.

SMILES	IC50 (human GHS receptor [1]) [nM]	Emax (human GHS receptor [2]) [%]	EC50 (human GHS receptor [2]) [nM]
CC(C)OCCNCCS(=O)(=O)c1ccc2nc(NC(=O)NC(=O)c3ccccc3Cl)sc2c1 [Example 38, 2-Chloro-N-[[6-[2-(2-propan-2-yloxyethylamino)ethylsulfonyl]benzothiazol-2-yl]carbamoyl]benzamide]	179	40	14.7
O=C(NC(=O)c1ccccc1Cl)Nc1nc2ccc(S(=O)(=O)CCCN3CCS(=O)(=O)CC3)cc2s1 [Example 150, 2-Chloro-N-[[6-[3-(1,1-dioxo-1,4-thiazinan-4-yl)propylsulfonyl]benzothiazol-2-yl]carbamoyl]benzamide]	52.7	33.4	30.9
CS(=O)(=O)c1ccc2nc(NC(=O)NC(=O)c3ccccc3OS(=O)(=O)C(F)(F)F)sc2c1 [Example 137, N-[(6-Methylsulfonylbenzothiazol-2-yl)carbamoyl]-2-(trifluoromethylsulfonyloxy)benzamide]	1750	24.1	2320
CN1CCN(CCCS(=O)(=O)c2ccc3nc(NC(=O)NC(=O)c4cc(-c5ccccn5)ccc4Cl)sc3c2)CC1 [Example 86, 2-Chloro-N-(6-(3-(4-methylpiperazin-1-yl)propylsulfonyl)benzothiazol-2-ylcarbamoyl)-5-(pyridin-2-yl)benzamide]	0.7	0.64	≥ 25000
COCCNCCS(=O)(=O)c1ccc2nc(NC(=O)NC(=O)c3ccccc3Cl)sc2c1 [Example 2, 2-Chloro-N-[[6-[2-(2-methoxyethylamino)ethylsulfonyl]benzothiazol-2-yl]carbamoyl]benzamide]	13.3	40.8	17.6
CCc1ccccc1C(=O)NC(=O)Nc1nc2ccc(S(C)(=O)=O)cc2s1 [Example 141, 2-Ethyl-N-[(6-methylsulfonylbenzothiazol-2-yl)carbamoyl]benzamide]	111	22.7	184
CC(C)N1CCC(S(=O)(=O)c2ccc3nc(NC(=O)NC(=O)c4ccccc4Cl)sc3c2)C1 (stereo not drawn) [Example 162, 2-Chloro-N-[[6-(1-propan-2-ylpyrrolidin-3-yl)sulfonylbenzothiazol-2-yl]carbamoyl]benzamide]	296	48.3	11.4
CS(=O)(=O)c1ccc2nc(NC(=O)NC(=O)c3cc(-c4cncs4)ccc3Cl)sc2c1 [Example 68, 2-chloro-N-(6-(methylsulfonyl)benzothiazol-2-ylcarbamoyl)-5-(thiazol-5-yl)benzamide]	44.1	0	> 25000
CCOc1ccc(Cl)c(C(=O)NC(=O)Nc2nc3ccc(S(C)(=O)=O)cc3s2)c1 [Example 53, 2-Chloro-5-ethoxy-N-(6-(methylsulfonyl)benzothiazol-2-ylcarbamoyl)benzamide]	10	0	≥ 25000
CC(C)CNCCS(=O)(=O)c1ccc2nc(NC(=O)NC(=O)c3ccccc3Cl)sc2c1 [Example 28, 2-Chloro-N-[[6-[2-(2-methylpropylamino)ethylsulfonyl]benzothiazol-2-yl]carbamoyl]benzamide]	43	44.6	33.7
O=C(NC(=O)c1cc(-n2cccc2)ccc1Cl)Nc1nc2ccc(S(=O)(=O)[C@@H]3CCNC3)cc2s1 [Example 78, 2-Chloro-N-[[6-[(3R)-pyrrolidin-3-yl]sulfonylbenzothiazol-2-yl]carbamoyl]-5-pyrrol-1-yl-benzamide]	0.8	0.81	4220
COCCNCCS(=O)(=O)c1ccc2nc(NC(=O)NC(=O)c3cc(-n4cccc4)ccc3Cl)sc2c1 [Example 80, 2-Chloro-N-[[6-[2-(2-methoxyethylamino)ethylsulfonyl]benzothiazol-2-yl]carbamoyl]-5-pyrrol-1-yl-benzamide]	2.2	9.77	≥ 25000
CCN1CCC[C@@H]1CS(=O)(=O)c1ccc2nc(NC(=O)NC(=O)c3ccccc3Cl)sc2c1 [Example 164, 2-Chloro-N-[[6-[[(2R)-1-ethylpyrrolidin-2-yl]methylsulfonyl]benzothiazol-2-yl]carbamoyl]benzamide]	174	43.9	70.2
CS(=O)(=O)c1ccc2nc(NC(=O)NC(=O)c3cc([N+](=O)[O-])ccc3Cl)sc2c1 [Example 70, 2-Chloro-N-(6-(methylsulfonyl)benzothiazol-2-ylcarbamoyl)-5-nitrobenzamide]	141	0.5	389
CS(=O)(=O)c1ccc2nc(NC(=O)NC(=O)c3cc(N4CC=CC4)ccc3Cl)sc2c1 [Example 50, 2-Chloro-5-(2,5-dihydro-pyrrol-1-yl)-N-(6-(methylsulfonyl)benzothiazol-2-ylcarbamoyl)benzamide]	1	0	≥ 25000
Cc1ccccc1C(=O)NC(=O)Nc1nc2ccc(S(C)(=O)=O)cc2s1 [Example 128, 2-Methyl-N-[(6-methylsulfonylbenzothiazol-2-yl)carbamoyl]benzamide]	100	17.3	219
COCC1CCCN1CCS(=O)(=O)c1ccc2nc(NC(=O)NC(=O)c3ccccc3Cl)sc2c1 (stereo not drawn) [Example 36, 2-Chloro-N-[[6-[2-[2-(methoxymethyl)pyrrolidin-1-yl]ethylsulfonyl]benzothiazol-2-yl]carbamoyl]benzamide]	305	34.3	9.55
CC1CCCCN1CCS(=O)(=O)c1ccc2nc(NC(=O)NC(=O)c3ccccc3Cl)sc2c1 (stereo not drawn) [Example 27, 2-Chloro-N-[[6-[2-(2-methyl-1-piperidyl)ethylsulfonyl]benzothiazol-2-yl]carbamoyl]benzamide]	115	46.7	23.1
